Measured values taken from PubChem BioAssay (NCI).
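These data come from cells grown in 96-well plates and exposed to compound for 48 hours at five concentrations. Definition used: TGI = concentration required for complete inhibition of growth.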

What was measured:
Assay in all cases: NCI anticancer screen, dose series, 48 h
[1] = system: 786-0 renal
[2] = system: A549 NSCLC
[3] = system: ACHN renal
[4] = system: CAKI-1 renal
[5] = system: CCRF-CEM leukemia
[6] = system: COLO 205 colon
[7] = system: DLD-1 colon
[8] = system: DMS 114 small cell lung
[9] = system: DMS 273 small cell lung
[10] = system: EKVX NSCLC
[11] = system: HCC-2998 colon
[12] = system: HCT-116 colon
[13] = system: HCT-15 colon
[14] = system: HL-60(TB) leukemia
[15] = system: HOP-62 NSCLC
[16] = system: HOP-92 NSCLC
[17] = system: HT29 colon
[18] = system: IGROV1 ovarian
[19] = system: K-562 leukemia
[20] = system: KM12 colon
[21] = system: KM20L2 colon
[22] = system: LOX IMVI melanoma
[23] = system: M14 melanoma
[24] = system: M19-MEL melanoma
[25] = system: MALME-3M melanoma
[26] = system: MOLT-4 leukemia
[27] = system: NCI-H226 lung
[28] = system: NCI-H23 lung
[29] = system: NCI-H460 lung
[30] = system: NCI-H522 lung
[31] = system: OVCAR-4 ovarian
[32] = system: OVCAR-5 ovarian
[33] = system: RPMI-8226 leukemia
[34] = system: RXF 393 renal
[35] = system: RXF-631 renal
[36] = system: SF-268 CNS
[37] = system: SF-295 CNS
[38] = system: SF-539 CNS
[39] = system: SK-MEL-2 melanoma
[40] = system: SK-MEL-28 melanoma
[41] = system: SK-OV-3 ovarian
[42] = system: SNB-19 CNS
[43] = system: SNB-75 CNS
[44] = system: SNB-78 CNS
[45] = system: SR leukemia
[46] = system: SW-620 colon
[47] = system: TK-10 renal
[48] = system: U251 CNS
[49] = system: UACC-257 melanoma
[50] = system: UACC-62 melanoma
[51] = system: UO-31 renal
[52] = system: XF 498 CNS
[53] = system: A498 renal
[54] = system: LXFL 529 NSCLC
[55] = system: OVCAR-3 ovarian
[56] = system: OVCAR-8 ovarian
[57] = system: SK-MEL-5 melanoma
[58] = system: SN12C renal

Measured: TGI

CCOC(=O)c1ccc(O)cc1
> 100 µM: [1] | [2] | [3] | [4] | [5] | [6] | [7] | [8] | [9] | [10] | [11] | [12] | [13] | [14] | [15] | [16] | [17] | [18] | [19] | [20] | [21] | [22] | [23] | [24] | [25] | [26] | [27] | [28] | [29] | [30] | [31] | [32] | [33] | [34] | [35] | [36] | [37] | [38] | [39] | [40] | [41] | [42] | [43] | [44] | [45] | [46] | [47] | [48] | [49] | [50] | [51] | [52]

CCOC(=O)c1ccc(N=Cc2ccc(N(CCC#N)CCC#N)cc2)cc1
> 100 µM: [1] | [53] | [2] | [3] | [4] | [5] | [6] | [7] | [8] | [9] | [10] | [12] | [13] | [14] | [15] | [16] | [17] | [18] | [19] | [21] | [22] | [54] | [23] | [24] | [25] | [26] | [27] | [28] | [29] | [30] | [55] | [31] | [32] | [56] | [33] | [34] | [35] | [36] | [37] | [38] | [39] | [40] | [57] | [41] | [58] | [42] | [43] | [44] | [46] | [47] | [49] | [50] | [51] | [52]

O=c1[nH]c(=O)n(C2CC(O)C(CO)O2)cc1/C=C/Br (configuration not stated)
> 100 µM: [1] | [53] | [2] | [3] | [4] | [5] | [7] | [8] | [9] | [10] | [14] | [15] | [16] | [17] | [18] | [19] | [20] | [21] | [22] | [54] | [23] | [24] | [25] | [26] | [27] | [28] | [29] | [30] | [31] | [32] | [56] | [34] | [35] | [36] | [37] | [38] | [39] | [40] | [57] | [41] | [58] | [42] | [44] | [45] | [46] | [47] | [48] | [49] | [50] | [51] | [52]
